Measured values as given in patent US20050282840A1, “Methods of modulating neurotrophin-mediated activity” (PainCeptor Pharma Corporation, priority 2004, published 2005).
Read-outs that look alike come from different tables or passages of the source.

Columns and labels:
p75 [1] = assay: Neurotrophin-receptor crosslinking assay, 125I-NGF (Example 3); assay type: binding; conditions: for 125I-NGF X-linking Sample (% binding): crosslinked sample counted on gamma counter; for 125I-NGF X-linking p75 band (% binding): p75 band counted on gamma counter
Method: (§1) PC12 cells or TrkB-expressing PC12^nnr5 cells were recovered using Gey's solution, pelleted by centrifugation, and suspended in HKR (HEPES-Krebs Ringer Solution; [10 mM HEPES, 125 mM NaCl, 4.8 mM KCl, 1.3 mM CaCl2.2H2O, 1.2 mM MgSO4, 1.2 mM KH2PO4, 1 mg/mL BSA, 1 mg/mL glucose, pH 7.35]). In a total volume of 1 mL, 1×10^6 cells were incubated, rotating, with 0.1 nM ^125I-BDNF or ^125I-NGF and additions (Compound A or Compound B at the indicated final concentrations) for 2 h at 4° C. At the conclusion of the binding reaction, a 20 μL volume of BS^3 was added to a final concentration of 0.4 mM and incubated, rocking, for an additional 30 min at room temperature. Cells were washed twice in TBS. For analysis of ^125I-NGF crosslinking to TrkA, ^125I-NGF crosslinking to p75^NTR, and ^125I-BDNF crosslinking to p75^NTR, samples were solubilized directly in SDS sample buffer and heated for 10 min at 95° C. For analysis of ^125I-BDNF crosslinking to TrkB, samples were immunoprecipitated with a pan-Trk antibody. All samples were electrophoresed on a 6% SDS-polyacrylamide gel, dried, and autoradiographed. Dried gels were registered to the autoradiograph and each labeled protein band was quantified by direct gamma counting. Non-linear regression analysis was performed by Prism 3.0 to generate concentration-effect curves and determine IC50 values.
(§2) The neurotrophin-receptor crosslinking assay described in Example 1 was used to determine binding of compounds 65, 3, 43 and 97 to ^125I-NGF and ^125I-BDNF.
(§3) ^1The p75 band was excised from the gel and cpm were determined on a gamma counter. Values were calculated as follows: [formula]
(§4) ^2An aliquot of the total crosslinked sample in SDS-sample buffer was counted on a gamma counter. Values were calculated as follows: [formula]

p75 [2] = assay: Neurotrophin-receptor crosslinking assay, 125I-BDNF (Example 3); assay type: binding; conditions: for 125I-BDNF X-linking Sample (% binding): crosslinked sample counted on gamma counter; for 125I-BDNF X-linking p75 band (% binding): p75 band counted on gamma counter
Method: as §1, §2, §3, §4

[3] = molecular target: T1, p75^NTR receptors (PC12 cells) (Rattus norvegicus, UniProt P07174); assay: Basic screening assay: binding of 125I-BDNF to PC12 cells; conditions: for 125I-BDNF Binding (% binding): Example 3 table; for activity at 50 µM: read-out: BDNF Activity % Maximal Binding
T1 construct: endogenous in cells; host or cells: PC12 cells
T1 sequence (P07174 30-425): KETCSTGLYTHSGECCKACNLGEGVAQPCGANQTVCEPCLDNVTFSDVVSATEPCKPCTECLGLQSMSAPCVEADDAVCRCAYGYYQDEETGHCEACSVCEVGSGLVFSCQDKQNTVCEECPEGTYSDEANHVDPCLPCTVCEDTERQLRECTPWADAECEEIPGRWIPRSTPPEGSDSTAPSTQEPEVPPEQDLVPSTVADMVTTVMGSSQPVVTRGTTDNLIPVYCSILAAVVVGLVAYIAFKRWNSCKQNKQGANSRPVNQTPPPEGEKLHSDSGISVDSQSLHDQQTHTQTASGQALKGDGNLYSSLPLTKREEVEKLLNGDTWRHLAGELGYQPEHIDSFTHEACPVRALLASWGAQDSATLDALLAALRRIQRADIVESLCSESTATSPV
T1 sequence (P23560 129-247 partner): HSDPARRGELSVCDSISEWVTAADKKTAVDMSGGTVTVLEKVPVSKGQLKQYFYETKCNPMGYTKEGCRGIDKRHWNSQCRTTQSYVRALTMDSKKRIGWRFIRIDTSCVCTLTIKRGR
How it was run: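 4×10^6 PC12 cells incubated 2 h at 4° C, rotating, with 0.5 nM ^125I-BDNF (final) and compound at 50 μM, in duplicate or more. Bound ligand separated through 10% glycerol by centrifugation and counted by gamma counter; specific binding is Bmax minus NSB; inhibitors followed up for EC50.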

[4] = system: p75^NTR receptors (PC12 cells); assay: Basic screening assay: binding of 125I-NGF to PC12 cells; conditions: for 125I-NGF Binding (% binding): Example 3 table; for NGF Activity % Maximal Binding: test compound 50 μM, 0.5 nM 125I-NGF, PC12 cells, 2 h at 4° C., specific binding as percent of control
How it was run: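 Inhibition of 0.5 nM 125I-NGF binding to p75NTR on PC12 cells was measured with compounds at 50 μM during 2 h rotation at 4° C. Cell-bound radioactivity from glycerol-cushion centrifugation was gamma-counted, giving NSB-corrected binding as % of control specific binding.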

[5] = Table 4, test compound 50 μM, 0.5 nM 125I-BDNF, PC12 cells, 2 h at 4° C., specific binding as percent of control
[6] = Table 1, test compound 50 μM, 0.5 nM 125I-BDNF, PC12 cells, 2 h at 4° C., specific binding as percent of control

| SMILES | 125I-NGF X-linking Sample (% binding) (p75 [1]) | 125I-NGF X-linking p75 band (% binding) (p75 [1]) | 125I-BDNF X-linking Sample (% binding) (p75 [2]) | 125I-BDNF X-linking p75 band (% binding) (p75 [2]) | 125I-BDNF Binding (% binding) [3] | activity at 50 µM [3, 5] | 125I-NGF Binding (% binding) [4] | NGF Activity % Maximal Binding ([4]; Table 4) | activity at 50 µM [3] | NGF Activity % Maximal Binding ([4]; Table 1) | further results |
| --- | --- | --- | --- | --- | --- | --- | --- | --- | --- | --- | --- |
| O=C1NC(=O)/C(=C\c2ccc(-c3ccc(Cl)c([N+](=O)[O-])c3)o2)S1 [Compound 97, 5-[5-(4-Chloro-3-nitrophenyl)furan-2-ylmethylene]-thiazolidine-2,4-dione] | * (50 < *) | * (50 < *) | * (50 < *) | XX (30 < XX < 40) | * (50 < *) | > 50% | * (50 < *) | * (50 < *) |  |  |  |
| Cc1cc(-c2ccc(C=C3C(=O)NC(=S)NC3=O)o2)c(C)c([N+](=O)[O-])c1 [Compound 3, 5-[5-(2,5-Dimethyl-3-nitrophenyl)furan-2-ylmethylene]-2-thioxo-dihydro-pyrimidine-4,6-dione] | * (50 < *) | * (50 < *) | XXXXX (0 < XXXXX < 10) | XXXXX (0 < XXXXX < 10) | XXXXX (0 < XXXXX < 10) |  | * (50 < *) |  | 0 to 10% | * (50 < *) |  |
| O=C1NC(=S)NC(=O)C1=Cc1ccc(-c2ccc(C(=O)O)c(Cl)c2)o1 [Compound 65, 2-Chloro-4-[5-(4,6-dioxo-2-thioxo-tetrahydro-pyrimidin-5-ylidenemethyl)furan-2-yl]benzoic acid] | * (50 < *) | * (50 < *) | XXXXX (0 < XXXXX < 10) | XXXXX (0 < XXXXX < 10) | XXXXX (0 < XXXXX < 10) |  | XXX (20 < XXX < 30) |  | 0 to 10% |  | NGF Activity % Maximal Binding ([4]; Table 2): XXX (20 < XXX < 30) |
| O=C(O)c1cc(-c2ccc(/C=C3\NC(=O)N(c4cccc(Cl)c4)C3=O)o2)ccc1Cl [Compound 43, 2-Chloro-5-{5-[1-(3-chlorophenyl)-2,5-dioxo-imidazolidin-4-ylidenemethyl]furan-2-yl}benzoic acid] | * (50 < *) | * (50 < *) | XXX (20 < XXX < 30) | XXXXX (0 < XXXXX < 10) | XXX (20 < XXX < 30) |  | * (50 < *) |  |  | * (50 < *) | activity at 50 µM [3, 6]: 30 to 40% |
| Cc1cc(C)cc(N2C(=O)/C(=C/c3ccc(-c4ccc(C(=O)O)cc4)o3)C(=O)NC2=S)c1 [Compound 124, 4-{5-[1-(3,5-Dimethylphenyl)-4,6-dioxo-2-thioxo-tetrahydro-pyrimidin-5-ylidenemethyl]furan-2-yl}benzoic acid] |  |  |  |  |  |  |  | * (50 < *) | > 50% |  |  |
| Cc1cc(-c2ccc(C=C3NC(=S)NC3=O)o2)ccc1[N+](=O)[O-] [Compound 95, 5-[5-(3-Methyl-4-nitrophenyl)furan-2-ylmethylene]-2-thioxo-imidazolidin-4-one] |  |  |  |  |  | > 50% |  | * (50 < *) |  |  |  |
| COC(=O)c1ccc(-c2ccc(/C=C3/NC(=O)N(Cc4ccc(F)cc4)C3=O)o2)c(C)c1 [Compound 46, 4-{5-[1-(4-Fluorobenzyl)-2,5-dioxo-imidazolidin-4-ylidenemethyl]furan-2-yl}-3-methylbenzoic acid methyl ester] |  |  |  |  |  |  |  |  |  | * (50 < *) | activity at 50 µM [3, 6]: 30 to 40% |
| CCOC(=O)c1ccc(-c2ccc(/C=C3/SC(=S)N(CC(=O)O)C3=O)o2)cc1 [Compound 68, 4-[5-(3-Carboxymethyl-4-oxo-2-thioxo-thiazolidin-5-ylidenemethyl)furan-2-yl]benzoic acid ethyl ester] |  |  |  |  |  |  |  |  |  |  | activity at 50 µM ([3]; Table 2, test compound 50 μM, 0.5 nM 125I-BDNF, PC12 cells, 2 h at 4° C., specific binding as percent of control): 0 to 10%; NGF Activity % Maximal Binding ([4]; Table 2): XX (30 < XX < 40) |
| Cc1cc(C(=O)O)ccc1-c1ccc(/C=C2\C(=O)NC(=O)N(c3ccccc3F)C2=O)o1 [Compound 66, 4-{5-[1-(2-Fluorophenyl)-2,4,6-trioxo-tetrahydro-pyrimidin-5-ylidenemethyl]furan-2-yl}-3-methylbenzoic acid] |  |  |  |  |  |  |  |  | 0 to 10% |  | NGF Activity % Maximal Binding ([4]; Table 2): XXX (20 < XXX < 30) |
| Cc1cccc(N2NC(=O)C(=Cc3ccc(-c4cccc([N+](=O)[O-])c4)o3)C2=O)c1 [Compound 140, 4-[5-(3-Nitrophenyl)furan-2-ylmethylene]-1-m-tolyl-pyrazolidine-3,5-dione] |  |  |  |  |  | > 50% |  | * (50 < *) |  |  |  |
| O=C1NC(=S)N/C1=C/c1ccc(-c2ccc(Cl)c([N+](=O)[O-])c2)o1 [Compound 93, 5-[5-(4-Chloro-3-nitrophenyl)furan-2-ylmethylene]-2-thioxo-imidazolidin-4-one] |  |  |  |  |  | > 50% |  | * (50 < *) |  |  |  |
| CCOC(=O)CN1C(=O)S/C(=C/c2ccc(-c3cc(C(=O)O)ccc3C)o2)C1=O [Compound 21, 3-[5-(3-Ethoxycarbonylmethyl-2,4-dioxo-thiazolidin-5-ylidenemethyl)furan-2-yl]-4-methylbenzoic acid] |  |  |  |  |  |  |  |  |  | * (50 < *) | activity at 50 µM [3, 6]: 0 to 10% |
